What all share (assay type): functional
What all share (conditions): read-out: DIZ

Assay [1] concerns Burkholderia thailandensis. Put plainly: Antibacterial activity against Burkholderia thailandensis at 0.5 mM by Kirby Bauer disk diffusion method. (A growth-free zone around the sample is the usual read-out of agar diffusion tests.)
Assay [2] relates to Pseudomonas aeruginosa. Put plainly: Antibacterial activity against Pseudomonas aeruginosa at 0.5 mM by Kirby Bauer disk diffusion method.
For assay [3], the system named is Bacillus cereus. Put plainly: Antibacterial activity against Bacillus cereus at 0.5 mM by Kirby Bauer disk diffusion method.
Assay [4] concerns Escherichia coli. Put plainly: Antibacterial activity against Escherichia coli at 0.5 mM by Kirby Bauer disk diffusion method.
Assay [5] has as its system Mycolicibacterium smegmatis. Put plainly: Antibacterial activity against Mycobacterium smegmatis at 0.5 mM by Kirby Bauer disk diffusion method.
In assay [6] the test system is Klebsiella pneumoniae. Put plainly: Antibacterial activity against Klebsiella pneumoniae at 0.5 mM by Kirby Bauer disk diffusion method.
For assay [7], the system named is Corynebacterium xerosis. Put plainly: Antibacterial activity against Corynebacterium xerosis at 0.5 mM by Kirby Bauer disk diffusion method.
In assay [8] the test system is Corynebacterium pseudodiphtheriticum. Put plainly: Antibacterial activity against Corynebacterium pseudodiphtheriticum at 0.5 mM by Kirby Bauer disk diffusion method.
Assay [9] concerns Micrococcus luteus. Put plainly: Antibacterial activity against Micrococcus luteus at 0.5 mM by Kirby Bauer disk diffusion method.

Structures are written as SMILES.

In the case of `CCOC(=O)c1cnc(NCCc2ccccc2Cl)nc1O`, the zone of inhibition at 500 µM in [1] turned out to be 12 mm; in assay [2], 0 mm; in [3] it was 9 mm; in [4], 0 mm; in assay [5], 15 mm; in assay [6], 0 mm. The zone of inhibition at 500 µM in assay [7], in assay [8] and in assay [9] was 0 mm in each case.
Consider `O=C(O)c1cnc(Nc2ccc(N3CCCCC3)cc2)nc1O`, for which the zone of inhibition at 500 µM was found to be 11 mm in assay [1]; 0 mm in assay [2]; 12 mm in assay [3]; 11 mm in assay [4]; 0 mm in assay [5]; 10 mm in assay [6]. Also, the zone of inhibition at 500 µM in assay [7], in assay [8] and in [9] was 0 mm each time.
Turning to `CCOC(=O)c1cnc(Nc2ccc(-c3ccncc3)cc2)nc1O`, the zone of inhibition at 500 µM amounted to 0 mm in assay [1]; 0 mm in [2]; 0 mm in [3]; 0 mm in assay [4]; 16 mm in assay [5]; 0 mm in [6]. In addition, the zone of inhibition at 500 µM in assay [7], in assay [8] and in assay [9] was 0 mm throughout.
For `CCOC(=O)c1cnc(Nc2ccc(-c3ccccc3)cc2)nc1O`, the zone of inhibition at 500 µM in assay [1] is 0 mm; in assay [2], 0 mm; in assay [3], 11 mm; in [4], 0 mm; in [5] it was 0 mm; in assay [6] it was 0 mm. The zone of inhibition at 500 µM in assay [7], in assay [8] and in [9] was 0 mm each time.
Regarding `O=C(O)c1cnc(Nc2ccccc2)nc1O`, the zone of inhibition at 500 µM was 0 mm in assay [1]; 0 mm in [2]; 0 mm in [3]; 0 mm in [4]; 15 mm in assay [5]; 0 mm in assay [6]. The zone of inhibition at 500 µM in assay [7], in assay [8] and in [9] was 0 mm each time.
In the case of `O=C(O)c1cnc(NCc2cc(Cl)ccc2Cl)nc1O`, the zone of inhibition at 500 µM in [1] is 10 mm; in assay [2], 9 mm; in [3], 10 mm; in [4] it was 11 mm; in assay [5], 15 mm; in assay [6], 8 mm. Also, the values for the zone of inhibition at 500 µM in [7], in [8] and in assay [9] were 0 mm, 10 mm and 0 mm, respectively.
For the compound `CCOC(=O)c1cnc(NCC2CCCO2)nc1O` (stereo unspecified), the zone of inhibition at 500 µM amounted to 11 mm in assay [1]; 0 mm in [2]; 0 mm in assay [3]; 0 mm in assay [4]; 15 mm in [5]; 0 mm in assay [6]. Also, the zone of inhibition at 500 µM in assay [7], in assay [8] and in assay [9] was 0 mm in each case.
For the compound `CCOC(=O)c1cnc(Nc2ccc(N3CCCCC3)cc2)nc1O`, the zone of inhibition at 500 µM in assay [1] worked out at 14 mm; in [2], 13 mm; in assay [3] it was 15 mm; in assay [4] it was 19 mm; in assay [5], 16 mm; in [6], 13 mm. Besides, the zone of inhibition at 500 µM in [7], in assay [8] and in assay [9] was 0 mm in each case.
Turning to `CCOC(=O)c1cnc(NCCc2cccc(F)c2)nc1O`, the zone of inhibition at 500 µM in [1], in assay [2], in assay [3], in assay [4], in assay [5] and in assay [6] was 0 mm in each case. Besides, the zone of inhibition at 500 µM in assay [7], in assay [8] and in assay [9] was 0 mm in each case.
With `O=C(O)c1cnc(NCc2ccc(Cl)nc2)nc1O`, the zone of inhibition at 500 µM is 12 mm in [1] and 10 mm in [2].
`CCOC(=O)c1cnc(NCc2ccc(Cl)nc2)nc1O`: the zone of inhibition at 500 µM was found to be 9 mm in assay [1], 0 mm in assay [2] and 10 mm in assay [3].
With `O=C(O)c1cnc(NCCc2ccc(Cl)cc2)nc1O`, the zone of inhibition at 500 µM in assay [1] was determined as 12 mm; in [2], 19 mm; in assay [4] it was 0 mm; in assay [5], 14 mm; in assay [6], 0 mm; in [7], 0 mm. Also, the zone of inhibition at 500 µM in [8] and in assay [9] was 0 mm each time.
With `CCOC(=O)c1cnc(Nc2ccc3cn[nH]c3c2)nc1O`, the zone of inhibition at 500 µM in assay [1] was 11 mm; in [2] it was 12 mm; in assay [3], 10 mm; in assay [4] it was 7 mm; in [5] it was 17 mm; in [6], 12 mm. For the same compound, the values for the zone of inhibition at 500 µM in [7], in [8] and in [9] were 7 mm, 0 mm and 0 mm, respectively.
`CCOC(=O)c1cnc(NCCc2ccc(Cl)cc2Cl)nc1O`: the zone of inhibition at 500 µM in assay [1] turned out to be 11 mm; in assay [2], 0 mm; in [3], 0 mm; in assay [4], 0 mm; in assay [5], 0 mm; in assay [6], 0 mm. Besides, the zone of inhibition at 500 µM in assay [7], in [8] and in [9] was 0 mm throughout.
For `O=C(O)c1cnc(Nc2ccc3[nH]ncc3c2)nc1O`, the zone of inhibition at 500 µM was 10 mm in assay [1]; 0 mm in [2]; 7 mm in assay [3]; 0 mm in assay [4]; 14 mm in assay [5]; 0 mm in assay [6]. In addition, the zone of inhibition at 500 µM in assay [7], in assay [8] and in [9] was 0 mm in each case.
As to `O=C(O)c1cnc(Nc2ccc3cn[nH]c3c2)nc1O`, the zone of inhibition at 500 µM in assay [1] was 0 mm; in [2], 0 mm; in [3], 9 mm; in [4] it was 0 mm; in assay [5] it was 16 mm; in [6], 9 mm. Also, the zone of inhibition at 500 µM in assay [7], in [8] and in assay [9] was 0 mm throughout.
As to `O=C(O)c1cnc(NCCc2ccc(Cl)c(Cl)c2)nc1O`, the zone of inhibition at 500 µM in assay [1] was 11 mm; in [2] it was 0 mm; in assay [3], 13 mm; in [4] it was 0 mm; in assay [5], 11 mm; in assay [6] it was 8 mm. The zone of inhibition at 500 µM in assay [7], in assay [8] and in assay [9] was 0 mm throughout.
On to `CCOC(=O)c1cnc(Nc2ccc3[nH]ncc3c2)nc1O`, for which the zone of inhibition at 500 µM is 8 mm in [1]; 10 mm in [2]; 10 mm in assay [3]; 0 mm in assay [4]; 10 mm in [5]; 0 mm in assay [6]. Besides, the zone of inhibition at 500 µM in assay [7], in assay [8] and in [9] was 0 mm in each case.
`CCOC(=O)c1cnc(NCCc2ccccn2)nc1O`: the values for the zone of inhibition at 500 µM in assay [1], in assay [2] and in assay [3] were 0 mm, 0 mm and 8 mm, respectively.
On to `CCOC(=O)c1cnc(NCCc2ccc(Cl)cc2)nc1O`, for which the results for the zone of inhibition at 500 µM in assay [1], in [2] and in assay [3] were 0 mm, 0 mm and 7 mm, respectively.
`Nc1ccc(C(=O)O)c(O)c1` [AMINOSALICYLIC ACID]: the zone of inhibition at 500 µM in assay [1] was 12 mm; in assay [2] it was 0 mm; in assay [3], 9 mm; in [4] it was 11 mm; in assay [5] it was 14 mm; in [6] it was 0 mm. The zone of inhibition at 500 µM in [7], in assay [8] and in assay [9] was 0 mm throughout.
Turning to `CCOC(=O)c1cnc(Nc2ccc(I)cc2)nc1O`, the zone of inhibition at 500 µM in assay [1] is 0 mm; in assay [2], 0 mm; in assay [3], 13 mm.
Turning to `O=C(O)c1cnc(NCCc2ccncc2)nc1O`, the figures for the zone of inhibition at 500 µM in assay [1] and in assay [2] were 10 mm and 0 mm, respectively.
As to `CCOC(=O)c1cnc(NCCc2ccncc2)nc1O`, the zone of inhibition at 500 µM in [1] was 4 mm; in [2], 0 mm; in [3] it was 8 mm.

Values taken from ChEMBL document CHEMBL4304805, “Antibacterial activity of 2-amino-4-hydroxypyrimidine-5-carboxylates and binding to Burkholderia pseudomallei 2-C-methyl-d-erythritol-2,4-cyclodiphosphate synthase” (Bioorg Med Chem Lett, 2019).
